The conditions of series [1]: in vivo.
Experimental: This preparation is used for the following toxicity studies:
The tests were performed by the official method in accordance with the decree of Feb.
Series [2] is described as follows: Oxidation stability test on flavonoids in complex preparations (emulsions). Format: physicochemical. Particulars: 45° C. Here is the method:
Oxidation stability test on flavonoids in complex preparations (emulsions) Composition of the formulation: [table] After studying the stabilities over about 1 month, it can be said that the color of the formulations containing flavonoids used in the form which has not been rendered lipophilic undergoes an extremely unfavorable change at 45° C.

The nature of series [3]: Oxidation stability test on flavonoids in simple preparations (color of solutions). Format: physicochemical. As to conditions: 0.103 M in ethoxydiglycol, Pantone color. Here is the method: A solution of […] containing 31.1 g/l (i.e. 0.103 M) is prepared in ethoxy-diglycol. The pH is adjusted to 5 or 6 and then 10 g/l of a preservative based on parabens are added to the mixture in order to avoid bacterial pollution. […] At identical molar concentrations, the two products are therefore compared for their oxidation stability, the color parameters being used as the stability indicators. The color references given in the Examples which follow refer to the Pantone colors as used in all the paint color charts well known to those skilled in the art.

Series [4] in a line: Determination of the free radical inhibiting activity in vitro. Particulars: 30 minutes; for % free radical inhibiting activity: dissolved in ethoxydiglycol, control subtracted; for Free radical inhibiting activity: compound at 25 mM, dissolved in DMSO, DMSO control subtracted. Here is the method:
A 60 μM solution of 1,1-diphenyl-2-picrylhydrazyl in ethanol is placed in contact, for 30 minutes at room temperature, with a sample originating from the products of the invention whose free radical inhibiting power is to be determined. […] The higher the percentage decrease, the stronger will be the free radical inhibiting activity of the active ingredient tested.

For series [5], the target named is T1, human leukocytic elastase (Homo sapiens, UniProt P08246).
T1 sequence (P08246 30-267): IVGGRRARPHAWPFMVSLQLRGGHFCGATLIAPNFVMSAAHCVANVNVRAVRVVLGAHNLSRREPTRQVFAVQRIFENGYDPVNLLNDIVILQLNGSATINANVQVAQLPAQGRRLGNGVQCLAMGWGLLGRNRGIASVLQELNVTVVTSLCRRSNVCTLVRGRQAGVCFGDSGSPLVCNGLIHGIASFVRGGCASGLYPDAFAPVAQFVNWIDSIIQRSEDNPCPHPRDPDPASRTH
Put plainly: Determination of the anti-elastase activity (elastin-rhodamine, fluorescence). Format: biochemical. Particulars: solubilized in ethoxydiglycol, 20 min at 37° C. As to the method: The enzymatic substrate elastin-rhodamine is dissolved in TrisHCl buffer (31.52 g of TrisHCl, water qsp 1000 ml) of pH 8.8 at a rate of 15 mg/ml. 1 mg of human leukocytic elastase is dissolved in 20 ml of TrisHCl buffer. The products of the invention are evaluated for their capacity to inhibit the degradation of elastin, which can be followed by fluorescence (excitation at 530 nm; emission at 590 nm) after the incubation, for 20 min at 37° C., of a mixture comprising the substrate, the enzyme and the inhibitor to be tested. The results are given as % inhibition relative to the inhibitor-free control.

The mark [6] stands for this setting: test concentration 1.03^−3 mol/l.
Setting [7] is: test concentration 1.03^−4 mol/l.
The mark [8] stands for this setting: test concentration 1.03^−5 mol/l.

Experimental findings from US6471973B2 (Coletica, priority 1998, dated 2002) are described below.

In the case of `CCCC(=O)Oc1cc(OC(=O)CCC)c2c(c1)OC(c1ccc(OC)c(OC(=O)CCC)c1)CC2=O` (stereo not shown) [Example 12, hesperitin triacylated by C4], in series [1], the Skin irritation result was “did not cause any irritation phenomena”.
With `COc1ccc([C@@H]2CC(=O)c3c(O)cc(O)cc3O2)cc1O` [Hesperitin, hesperitin], the “Stability test: color of cream, T 1 day” value in series [2] (520 μM in cream (emulsion)) is given as “light beige”; in series [2] (1043 μM in cream (emulsion)), “more”. Further, the “Stability test: color of cream, T 7 days” value is recorded as “yellow” in series [2] (520 μM in cream (emulsion)) and “very yellow” in series [2] (1043 μM in cream (emulsion)). In addition, the “Stability test: color of cream, T 25 days” value in series [2] (520 μM in cream (emulsion)) is “yellow”; in series [2] (1043 μM in cream (emulsion)) it was “very yellow”. Besides, the entries for the “Stability test: color of cream, T 35 days” value in series [2] (520 μM in cream (emulsion)) and in series [2] (1043 μM in cream (emulsion)) were “yellow” and “very yellow”, respectively. Further, the “Color of the solutions 1 day after manufacture” value in series [3] (pH 5, 4° C.) came out at 157C; in series [3] (pH 5, 20° C.), 157C; in series [3] (pH 5, 45° C.) it was 157C; in series [3] (pH 6, 4° C.), 157C; in series [3] (pH 6, 20° C.), 157C; in series [3] (pH 6, 45° C.) it was 157C. Moreover, the “Color of the solutions 21 days after manufacture” value is “black +” in series [3] (pH 5, 4° C.); “black +” in series [3] (pH 5, 20° C.); “black +” in series [3] (pH 5, 45° C.); “black +” in series [3] (pH 6, 4° C.); “black +” in series [3] (pH 6, 20° C.); “black +” in series [3] (pH 6, 45° C.). Further, the “% free radical inhibiting activity” value is 94% in series [4] (0.103 mol/l), 28% in series [4] (1.03^−3 mol/l) and 8% in series [4] (1.03^−5 mol/l). Besides, the “Free radical inhibiting activity” value in series [4] was 42%. The “Anti-elastase test: % inhibition relative to the inhibitor-free control” value in series [5] (setting [6]) came to 20%; in series [5] (setting [7]), 24%; in series [5] (setting [8]) it was 0%.
Turning to “Hesperitin monoacylated by C12 [Example 7]”, the “Anti-elastase test: % inhibition relative to the inhibitor-free control” value in series [5] (test concentration 0.103 mol/l) was 100%; in series [5] (setting [6]) it was 50%; in series [5] (setting [7]) it was 36%; in series [5] (setting [8]), 34%.
Regarding “hesperitin diacylated by C12 [Example 6]”, in series [4], the “Free radical inhibiting activity” value is 67%. Further, the entries for the “Anti-elastase test: % inhibition relative to the inhibitor-free control” value in series [5] (test concentration 0.103 mol/l), in series [5] (setting [6]) and in series [5] (setting [8]) were 100%, 65% and 29%, respectively.
Turning to “hesperitin triacylated by C18:2 [Example 15]”, the Skin irritation result in series [1] is recorded as “did not cause any irritation phenomena”.
